Reference: ChEMBL document CHEMBL1201862, “PubChem BioAssay data set” (2004)
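96-well plates; 48 h exposure; 5 concentrations. Endpoints by linear interpolation between flanking doses. Not reached: highest tested concentration assigned. The concentration for 50% growth inhibition is given as GI50.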 Calls of active or inactive are those of the source. Cut-off read from the data, not from the text of the source: active = GI50 up to about 1.1 µM and inactive = higher.

Experiments:
Test in all cases: growth of human tumour cells (NCI), 48 h
[1] = system: UACC-257
[2] = system: LOX IMVI
[3] = system: A498
[4] = system: OVCAR-8
[5] = system: HCC 2998
[6] = system: OVCAR-3
[7] = system: TK-10
[8] = system: NCI-H522
[9] = system: SR
[10] = system: CAKI-1
[11] = system: SN12C
[12] = system: HCT-15
[13] = system: SF-539
[14] = system: SK-MEL-2
[15] = system: Malme-3M
[16] = system: UACC-62
[17] = system: CCRF-CEM
[18] = system: SF-268
[19] = system: HL-60

Measured: GI50

COC1(OC)C=CC2C1C1C=CC2C1(OC)OC (configuration not stated)
inactive: [1] > 100 µM | [2] > 100 µM | [3] > 100 µM | [4] > 100 µM | [5] > 100 µM | [6] > 100 µM | [7] > 100 µM | [8] > 100 µM | [9] > 100 µM | [10] > 100 µM | [11] > 100 µM | [13] > 100 µM | [14] > 100 µM | [15] > 100 µM | [16] > 100 µM | [17] > 100 µM | [18] > 100 µM
> 100 µM: [12]

N#Cc1nnc2ccccc2c1N
inactive: [1] > 100 µM | [2] > 100 µM | [4] > 100 µM | [5] > 100 µM | [6] 2.26 µM | [7] > 100 µM | [9] > 100 µM | [10] > 100 µM | [13] > 100 µM | [14] > 100 µM | [15] > 100 µM | [16] > 100 µM | [18] > 100 µM
> 100 µM: [12]

FC(F)(F)c1nc(Br)[nH]c1C(F)(F)F
inactive: [1] > 100 µM | [2] > 100 µM | [4] > 100 µM | [5] 49.9 µM | [6] 60.4 µM | [7] > 100 µM | [19] > 100 µM | [9] 35.6 µM | [10] > 100 µM | [11] 69 µM | [13] > 100 µM | [14] 38.4 µM | [15] > 100 µM | [16] 37.6 µM | [17] 66.5 µM | [18] > 100 µM
> 100 µM: [12]

C=C1C(=O)OC2/C=C(\C)C(O)/C=C\C(C)(O)CC(OC(=O)/C(C)=C/C)C12 (configuration not stated)
inactive: [1] 27.2 µM | [2] 16.2 µM | [3] > 100 µM | [4] 22.1 µM | [5] > 100 µM | [6] 9.93 µM | [7] > 48.4 µM | [8] 12.8 µM | [19] 7.91 µM | [9] 11.7 µM | [10] 23.6 µM | [11] 22 µM | [13] 14.1 µM | [14] 19.7 µM | [15] 21.4 µM | [16] 17.1 µM | [17] > 32.5 µM | [18] 76.9 µM
17.2 µM: [12]

COc1ccccc1OCc1nnc(SCC(=O)O)n1-c1ccccc1
> 100 µM: [12]
inactive: [1] > 100 µM | [2] > 100 µM | [3] > 100 µM | [4] > 100 µM | [5] > 100 µM | [6] > 100 µM | [7] > 100 µM | [8] > 100 µM | [19] > 100 µM | [9] > 100 µM | [11] > 100 µM | [13] > 100 µM | [14] > 100 µM | [15] > 100 µM | [16] > 100 µM | [17] > 100 µM | [18] > 100 µM

CN/N=C(/CC(=O)c1sc(NNC(C)=O)nc1C)C(=O)Nc1ccc(OC)cc1OC
> 100 µM: [12]
inactive: [1] > 100 µM | [2] > 100 µM | [3] > 100 µM | [4] > 100 µM | [5] > 100 µM | [6] > 100 µM | [7] > 100 µM | [8] > 100 µM | [19] > 100 µM | [9] > 100 µM | [10] > 100 µM | [11] > 100 µM | [13] > 100 µM | [14] > 100 µM | [15] > 100 µM | [16] > 100 µM | [17] > 100 µM | [18] > 100 µM

O=C1c2ccc3c4ccccc4n(Cc4ccccc4)c3c2C(=O)N1c1ccccc1
10.8 µM: [12]
inactive: [1] 15.8 µM | [2] 16.2 µM | [3] 25.1 µM | [4] 15.6 µM | [5] 18.3 µM | [6] 5.5 µM | [7] 15.6 µM | [8] 2.62 µM | [19] 4.51 µM | [9] 5.61 µM | [10] 12.5 µM | [11] 16.5 µM | [13] 17.1 µM | [14] 22.9 µM | [15] 16.2 µM | [16] 17.3 µM | [17] 1.88 µM | [18] 19.9 µM

O=[N+]([O-])c1ccc(-c2csc(=[N+]3CCCCC3)s2)cc1
inactive: [1] 2.08 µM | [2] 26.1 µM | [3] 2.18 µM | [4] 3.48 µM | [5] 21.1 µM | [6] 13.9 µM | [7] > 83.4 µM | [8] 3.61 µM | [19] > 53.2 µM | [9] 11.1 µM | [10] 75.7 µM | [11] 4.48 µM | [13] 19.8 µM | [14] 24.9 µM | [15] 12.1 µM | [16] 34.4 µM | [17] 4.91 µM | [18] 3.93 µM
29.2 µM: [12]

O=C(NC(Cc1c[nH]c2ccccc12)C(=O)Nc1ccc(Br)cc1)OCc1ccccc1 (configuration not stated)
11.1 µM: [12]
inactive: [1] 11.3 µM | [2] 9.06 µM | [3] 11.4 µM | [4] 13.6 µM | [5] 11 µM | [6] 11.6 µM | [7] 14.9 µM | [8] 10.1 µM | [19] 3.97 µM | [9] 6.95 µM | [10] 5.27 µM | [11] 9.46 µM | [13] 15.3 µM | [14] 6.56 µM | [15] 11.4 µM | [16] 10.1 µM | [17] 3.6 µM | [18] 12.7 µM

O=C(N/N=C(/CCN1CCCC1)CC(c1ccccc1)c1c(O)c2ccccc2oc1=O)c1ccncc1 (configuration not stated)
> 100 µM: [12]
inactive: [1] > 100 µM | [2] > 100 µM | [3] > 100 µM | [4] > 100 µM | [6] > 100 µM | [7] > 100 µM | [8] 72.6 µM | [19] 30 µM | [9] 15.4 µM | [10] > 100 µM | [11] > 100 µM | [13] > 100 µM | [14] > 100 µM | [15] 93.3 µM | [16] > 100 µM | [17] 50.8 µM | [18] > 100 µM
active: [5] 0.171 µM

COc1ccc2nc3ccccc3c(NCCCCN(C)CCCl)c2c1
0.0185 µM: [12]
active: [1] 0.581 µM | [2] 0.0335 µM | [3] 0.0435 µM | [4] 0.0254 µM | [5] 0.0893 µM | [6] 0.0392 µM | [7] 0.638 µM | [8] < 0.0143 µM | [19] 0.0188 µM | [9] < 0.01 µM | [10] 0.0284 µM | [11] 0.0184 µM | [13] 0.0689 µM | [14] 0.146 µM | [15] 0.33 µM | [16] 0.0373 µM | [17] 0.013 µM | [18] 0.0186 µM

COC(=O)C(C(=O)C(=O)Nc1cccc([N+](=O)[O-])c1)c1nc2ccc([N+](=O)[O-])cc2nc1O (configuration not stated)
inactive: [1] > 100 µM | [2] > 100 µM | [3] > 100 µM | [4] > 100 µM | [5] > 100 µM | [6] > 100 µM | [7] > 100 µM | [8] > 100 µM | [19] > 100 µM | [9] > 100 µM | [10] > 100 µM | [11] > 100 µM | [13] > 100 µM | [14] > 100 µM | [15] > 100 µM | [16] > 100 µM | [17] > 100 µM | [18] > 100 µM
> 100 µM: [12]

O=C(Nc1ccc(C(F)(F)F)cc1[N+](=O)[O-])C(=O)C1NC(=S)NC1=O (configuration not stated)
inactive: [1] > 100 µM | [2] > 100 µM | [3] 53 µM | [4] > 100 µM | [5] > 100 µM | [6] > 100 µM | [7] > 100 µM | [8] > 100 µM | [19] > 100 µM | [9] > 100 µM | [10] 54.1 µM | [11] 2.26 µM | [13] > 100 µM | [14] > 100 µM | [15] > 100 µM | [16] > 100 µM | [17] > 100 µM | [18] > 100 µM
> 100 µM: [12]

C/C(COc1ccccc1)=N\NC(N)=S
inactive: [1] > 100 µM | [2] > 100 µM | [3] > 100 µM | [4] > 100 µM | [5] > 100 µM | [6] > 100 µM | [7] > 100 µM | [19] > 100 µM | [9] > 100 µM | [10] > 100 µM | [11] > 100 µM | [13] 90.4 µM | [14] > 100 µM | [15] > 100 µM | [16] > 100 µM | [17] 61.7 µM | [18] > 100 µM
> 100 µM: [12]

COc1cc([C@@H]2OCC3C(c4ccc5c(c4)OCO5)OCC32)cc(OC)c1OC (some centres not stated)
> 100 µM: [12]
inactive: [2] > 100 µM | [3] > 100 µM | [4] 81.7 µM | [5] > 100 µM | [6] > 100 µM | [8] 49.9 µM | [19] > 100 µM | [9] 91.6 µM | [10] > 100 µM | [11] > 100 µM | [13] > 100 µM | [14] > 100 µM | [15] > 100 µM | [17] > 100 µM | [18] > 100 µM
